Tests used:
Assay in all cases: relative viability (nuclei count vs DMSO), 5 days (fraction); higher = more cells survive
[1] = compound: CC1=C(CC(=O)O)c2cc(F)ccc2/C1=C\c1ccc([S+](C)[O-])cc1 [Sulindac] + O=C(c1cc(Cc2n[nH]c(=O)c3ccccc23)ccc1F)N1CCN(C(=O)C2CC2)CC1 [Olaparib] (partner 8 µM)
How it was run: (§1)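 Lung cancer cell lines were pin-tool dosed in 1536-well plates on the day after seeding, with either a lone drug or a fixed anchor-drug dose plus five library-drug doses (not always all listed) in √10 steps. Nuclei were counted on 4× images after 5 days. Relative viability is the ratio of treated-well to vehicle-well nuclei counts, with each value a median of duplicate plates.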

[2] = compound: CN[C@@H]1C[C@H]2O[C@@](C)([C@@H]1OC)n1c3ccccc3c3c4c(c5c6ccccc6n2c5c31)C(=O)NC4 [Staurosporine] + N=C(N)NC(=N)NCCc1ccccc1 [Phenformin] (partner 250 µM)
How it was run: as §1

[3] = compound: CN[C@@H]1C[C@H]2O[C@@](C)([C@@H]1OC)n1c3ccccc3c3c4c(c5c6ccccc6n2c5c31)C(=O)NC4 [Staurosporine] + Nc1nc2[nH]cc(CCc3ccc(C(=O)N[C@@H](CCC(=O)O)C(=O)O)cc3)c2c(=O)[nH]1 [Pemetrexed] (partner 0.2 µM)
How it was run: as §1

[4] = compound: CN[C@@H]1C[C@H]2O[C@@](C)([C@@H]1OC)n1c3ccccc3c3c4c(c5c6ccccc6n2c5c31)C(=O)NC4 [Staurosporine] + O=C(c1cc(Cc2n[nH]c(=O)c3ccccc23)ccc1F)N1CCN(C(=O)C2CC2)CC1 [Olaparib] (partner 8 µM)
How it was run: as §1

Cell Line	relative viability ([1]; first compound 0.08 µM)	relative viability ([1]; first compound 0.253 µM)	relative viability ([1]; first compound 0.8 µM)	relative viability ([1]; first compound 2.53 µM)	relative viability ([1]; first compound 8 µM)	relative viability ([2]; first compound 0.005 µM)	relative viability ([2]; first compound 0.01581 µM)	relative viability ([2]; first compound 0.1581 µM)	relative viability ([2]; first compound 0.5 µM)	relative viability ([3]; first compound 0.005 µM)	relative viability ([3]; first compound 0.01581 µM)	relative viability ([3]; first compound 0.05 µM)	relative viability ([3]; first compound 0.1581 µM)	relative viability ([3]; first compound 0.5 µM)	relative viability ([4]; first compound 0.005 µM)	relative viability ([4]; first compound 0.01581 µM)	relative viability ([4]; first compound 0.05 µM)	relative viability ([4]; first compound 0.1581 µM)	relative viability ([4]; first compound 0.5 µM)	relative viability ([2]; first compound 0.05 µM)
SK-LU-1	0.498	0.525	0.446	0.407	0.536	0.235	0.111	0.0994	0.0726	0.416	0.182	0.167	0.163	0.176	0.337	0.172	0.156	0.128	0.13	–
CAL-12T	0.794	0.727	0.649	0.664	0.769	0.205	0.165	0.103	0.112	0.345	0.248	0.229	0.191	0.124	0.441	0.253	0.252	0.148	0.163	0.235
COR-L 105	0.645	0.61	0.692	0.717	0.72	0.312	0.217	0.207	0.181	0.655	0.554	0.52	0.428	0.293	0.562	0.401	0.326	0.386	0.26	0.176
NCI-H2405	0.93	0.851	0.86	0.831	1.08	0.326	0.162	0.0864	0.0856	0.417	0.174	0.14	0.0988	0.1	0.204	0.179	0.14	0.122	0.0873	0.117
NCI-H2228	0.941	0.804	0.499	0.637	0.516	0.254	0.166	0.0655	0.0891	0.288	0.185	0.192	–	0.116	0.375	0.211	0.18	0.0961	0.0588	0.11
PC-3 [JPC-3]	1.36	1.09	0.941	1.13	1.25	–	0.394	0.247	0.181	0.975	0.444	0.516	0.389	0.347	1.03	0.603	0.569	0.385	0.332	0.352
SW 1573	0.52	0.523	0.528	0.478	0.551	0.201	0.156	0.101	0.0586	0.297	0.34	0.204	0.0927	0.0611	0.189	0.124	0.121	0.0899	0.063	0.0959
NCI-H1666	0.705	0.741	0.674	0.734	0.774	0.495	0.567	0.262	0.201	0.737	0.613	0.53	0.538	0.415	0.682	0.567	0.583	0.476	0.432	0.518
NCI-H2087	0.606	0.722	0.54	0.468	0.571	0.364	0.214	0.0795	0.0731	0.548	0.531	0.429	0.171	0.117	0.48	0.414	0.217	0.0849	0.0689	0.14
NCI-H596	0.567	0.697	–	0.716	0.639	0.797	0.323	0.249	0.194	0.485	0.265	0.297	0.27	0.148	0.854	0.542	0.302	0.25	0.297	0.383
LCLC-103H	0.856	0.757	0.695	0.798	0.82	0.296	0.211	0.108	0.105	0.405	0.238	0.336	0.247	0.213	0.851	0.477	0.403	0.247	–	0.16
HCC-15	0.747	0.763	0.68	0.702	0.765	0.344	–	0.112	0.0964	0.217	0.188	0.189	0.157	0.134	0.613	–	0.532	0.286	0.205	0.19
H3255	0.573	0.531	0.501	0.557	0.553	0.326	0.28	0.181	0.14	0.481	0.392	0.305	0.213	0.135	0.447	0.315	0.28	0.24	0.155	0.249
NCI-H1915	0.241	0.266	0.245	0.254	0.264	0.332	0.087	0.0813	0.0841	0.486	0.231	0.219	0.15	0.0886	0.214	0.124	0.159	0.0952	0.0708	0.181
NCI-H650	0.442	0.431	0.341	0.425	0.472	0.285	0.257	0.189	0.164	0.64	0.257	0.235	0.23	0.228	0.313	0.246	0.25	0.229	0.124	0.26
NCI-H2126	1.12	0.923	0.87	0.951	1	0.483	0.245	0.237	0.245	0.64	0.262	0.4	0.279	0.211	0.89	0.634	0.62	0.468	0.4	0.336

Cell Line	relative viability ([1]; first compound 0.08 µM)	relative viability ([1]; first compound 0.253 µM)	relative viability ([1]; first compound 0.8 µM)	relative viability ([1]; first compound 2.53 µM)	relative viability ([1]; first compound 8 µM)	relative viability ([2]; first compound 0.005 µM)	relative viability ([2]; first compound 0.01581 µM)	relative viability ([2]; first compound 0.1581 µM)	relative viability ([2]; first compound 0.5 µM)	relative viability ([3]; first compound 0.005 µM)	relative viability ([3]; first compound 0.01581 µM)	relative viability ([3]; first compound 0.05 µM)	relative viability ([3]; first compound 0.1581 µM)	relative viability ([3]; first compound 0.5 µM)	relative viability ([4]; first compound 0.005 µM)	relative viability ([4]; first compound 0.01581 µM)	relative viability ([4]; first compound 0.05 µM)	relative viability ([4]; first compound 0.1581 µM)	relative viability ([4]; first compound 0.5 µM)	relative viability ([2]; first compound 0.05 µM)
NCI-H838	0.941	0.798	0.65	0.809	0.914	0.208	0.139	0.125	0.0931	0.205	0.148	0.144	0.111	0.112	0.24	0.175	0.154	0.122	0.0873	0.136
NCI-H2342	0.353	0.368	0.414	0.415	0.451	0.686	–	0.301	0.281	0.773	0.746	0.433	0.315	0.319	0.436	0.315	0.363	0.398	0.394	0.427
EMC-BAC-2	0.493	0.488	0.476	0.46	0.566	0.252	0.179	0.189	0.164	0.362	0.273	0.258	0.255	0.224	0.245	0.162	0.172	0.177	0.19	0.17
NCI-H1355	0.704	0.691	0.679	0.66	0.759	0.369	0.165	0.168	0.162	0.999	0.609	0.449	0.27	0.2	0.751	0.289	0.253	0.185	0.173	0.255
NCI-H2347	0.546	0.599	0.562	0.574	0.616	0.269	0.253	0.216	0.165	0.36	0.321	0.32	0.329	0.291	0.481	0.319	0.39	0.371	0.292	0.201
NCI-H1651	0.17	0.189	0.162	0.177	0.169	0.293	0.155	0.0842	0.0807	0.613	0.426	0.274	0.156	0.159	0.153	0.159	0.168	0.15	0.126	0.16
NCI-H1993	1.03	1.11	0.895	1.05	1.13	0.507	0.408	0.455	0.421	0.631	0.428	0.539	0.332	0.267	0.941	0.73	0.717	0.497	0.313	0.463
COR-L23	0.348	0.449	0.291	0.323	0.376	0.243	0.18	0.0737	0.0585	0.191	0.151	0.161	0.135	0.0959	0.216	0.189	0.164	0.141	0.0662	0.14
HCC-44	0.983	1.05	0.773	0.933	1.01	0.104	0.0863	0.0829	0.0953	0.629	–	0.583	0.27	0.235	1.04	–	0.75	0.456	0.351	0.0757
LOU-NH91	0.955	0.961	0.84	0.893	1.01	0.467	0.302	0.228	0.168	0.339	0.304	0.336	0.255	0.274	0.816	0.577	0.572	0.344	0.246	0.334
NCI-H520	0.36	0.328	0.302	0.313	0.283	0.758	0.233	0.25	0.166	0.579	0.394	0.295	0.181	0.148	0.347	0.302	0.211	0.138	0.139	0.394
NCI-H661	0.971	0.789	0.59	0.742	0.836	0.277	0.235	0.19	0.131	0.901	0.667	0.542	0.353	0.186	0.65	0.556	0.521	0.333	0.175	0.27
NCI-H1975	0.998	0.763	0.65	0.841	0.974	0.208	0.135	0.103	0.0912	0.246	0.185	0.184	0.128	0.118	0.306	0.225	0.165	0.107	0.104	0.136
NCI-H1755	0.888	0.952	0.829	0.85	0.991	0.384	0.24	0.195	0.161	0.348	0.321	0.236	0.224	0.223	0.731	0.421	0.25	0.236	0.234	0.196
NCI-H2009	0.893	0.716	0.679	0.666	0.754	0.207	0.188	0.131	0.0831	0.895	0.389	0.222	0.156	0.112	0.532	0.248	0.0909	0.112	0.0765	0.216
LK-2	0.766	0.998	0.514	0.592	0.808	0.676	–	0.127	0.126	0.331	0.255	0.269	0.0688	0.0539	–	0.432	0.518	0.289	0.0843	–
